From PMC8703412 (Pharmaceuticals, 2021)
≈ marks a conversion by molar mass, not a printed value. Read-outs that look alike come from different tables or passages of the source.

Assays:
[1] = test system: Mycobacterium tuberculosis strain 331/88 (i.e., H37Rv); design: method as in PMID 34198149; conditions: cited from earlier work
[2] = test system: Mycobacterium avium 330/88; design: method as in PMID 34198149; conditions: cited from earlier work
[3] = test system: Mycobacterium kansasii 6509/96 (clinical isolate); design: method as in PMID 34198149; conditions: cited from earlier work
[4] = test system: Mycobacterium tuberculosis strain 331/88 (i.e., H37Rv); assay: MIC micromethod in Šula's medium, drug-susceptible Mtb.; type: cell-based
[5] = test system: Mycobacterium avium 330/88; assay: MIC micromethod in Šula's medium, M. avium; type: cell-based
[6] = test system: Mycobacterium kansasii 6509/96 (clinical isolate); assay: MIC micromethod in Šula's medium, M. kansasii; type: cell-based
[7] = Cytotoxicity, CellTiter 96 (MTS) assay; conditions: human, Cytotoxicity for HepG2 cells, IC50, 24 h incubation, 1–1000 µM
HepG2 cells = assay: Cytotoxicity, CellTiter 96 (MTS) assay; conditions: read-out: Cytotoxicity for HepG2 cells, IC50; 24 h incubation, 1–1000 µM
Mtb. H37Ra pMV261/pVV16 = assay: microbe, parasite or virus in culture; type: cell-based, Mycobacterium tuberculosis; conditions: for MIC: Mycobacterium tuberculosis, H37RA, 672 h, read-out: MIC H37Ra pMV261/pVV16
Mtb. H37Ra pMV261-inhA = assay: microbe, parasite or virus in culture; type: cell-based, Mycobacterium tuberculosis; conditions: for MIC: Mycobacterium tuberculosis, H37RA, 672 h, read-out: MIC H37Ra pMV261-inhA
[8] = test system: Mtb. H37Ra pVV16-katGsmeg; assay: microbe, parasite or virus in culture; type: cell-based; conditions: Mycobacterium tuberculosis, 672 h, read-out: MIC H37Ra pVV16-katGsmeg
[9] = Solubility in the cytotoxicity concentration range; type: physicochemical; conditions: cytotoxicity assay medium, DMSO max 1% v/v
Protocol: The cells were seeded in a density 15,000 cells per well in a 96-well plate. The next day the cells were treated with each of the tested substances at a broad range of concentrations (1–1000 µM) in triplicates; the compounds were dissolved in DMSO (maximal incubation concentration of DMSO was 1% v/v). The controls representing 100% cell viability, 0% cell viability (the cells treated with 10% DMSO), no cell control and vehiculum controls were incubated in parallel, also as triplicates. After 24 h of incubation in a humidified atmosphere containing 5% CO2 at 37 °C, the reagent from the kit CellTiter 96 AQueous One Solution Cell Proliferation Assay (CellTiter 96; PROMEGA, Fitchburg, WI, USA) was added. After 2 h incubation at 37 °C, absorbance of samples was recorded at 490 nm (TECAN, Infinita M200, Grödig, Austria). A standard toxicological parameter IC50 was calculated by nonlinear regression from a semilogarithmic plot of incubation concentration versus percentage of absorbance relative to untreated controls using GraphPad Prism 8 software (GraphPad Software, Inc., La Jolla, CA, USA).
Cytotoxicity was quantified using the standard parameter IC50 (Figure 3).

[10] = Mycobacterium tuberculosis, H37RV, 336 h, 14 d incubation, esters, Table 1, read-out: MIC Mtb. 331/88 14 d
[11] = Mycobacterium tuberculosis, H37RV, 504 h, 21 d incubation, esters, Table 1, read-out: MIC Mtb. 331/88 21 d
[12] = Mycobacterium avium, 330/88, 336 h, 14 d incubation, Table 1, read-out: MIC M. avium 330/88 14 d
[13] = Mycobacterium avium, 330/88, 504 h, 21 d incubation, Table 1, read-out: MIC M. avium 330/88 21 d
[14] = Mycobacterium kansasii, 168 h, 7 d incubation, Table 1, read-out: MIC M. kansasii 6509/96 7 d
[15] = Mycobacterium kansasii, 336 h, 14 d incubation, Table 1, read-out: MIC M. kansasii 6509/96 14 d
[16] = Mycobacterium kansasii, 504 h, 21 d incubation, Table 1, read-out: MIC M. kansasii 6509/96 21 d
[17] = Mycobacterium tuberculosis, H37RV, Table 4, read-out: MIC H37Rv
[18] = Mycobacterium avium, 330/88, 504 h, 14 and 21 d, read-out: MIC for M. avium
[19] = Mycobacterium kansasii, 504 h, text summary over 7, 14 and 21 d, read-out: MIC for M. kansasii 6509/96

For `C/C(=N\NC(=O)c1ccncc1)C(=O)O` [compound 2, (E)-2-(2-isonicotinoylhydrazineylidene)propanoic acid], the “MIC Mtb. 331/88 14 d” value ([1]; 14 d incubation) is given as 1 µM (≈ 0.207 µg/mL), the “MIC Mtb. 331/88 21 d” value ([1]; 21 d incubation) is given as 1 µM (≈ 0.207 µg/mL) and the “MIC M. avium 330/88 14 d” value ([2]; 14 d incubation) is given as 500 µM (≈ 104 µg/mL). The “MIC M. avium 330/88 21 d” value ([2]; 21 d incubation) was >1000 µM, the “MIC M. kansasii 6509/96 7 d” value ([3]; 7 d incubation) was 8 µM (≈ 1.66 µg/mL) and the “MIC M. kansasii 6509/96 14 d” value ([3]; 14 d incubation) was 16 µM (≈ 3.32 µg/mL). For the same compound, the “MIC M. kansasii 6509/96 21 d” value ([3]; 21 d incubation) was 16 µM (≈ 3.32 µg/mL).
For `C/C(=N\NC(=O)c1ccncc1)C(=O)Oc1ccc(Oc2ccccc2)cc1` [3e, 4-Phenoxyphenyl (E)-2-(2-isonicotinoylhydrazineylidene)propanoate], the MIC [4, 10] was ≤ 0.125 µM, the MIC [4, 11] was 0.5 µM (≈ 0.188 µg/mL) and the MIC [5, 12] was 250 µM (≈ 93.8 µg/mL). For the same compound, the MIC [5, 13] was 500 µM (≈ 188 µg/mL), the MIC [6, 14] was 2 µM (≈ 0.751 µg/mL) and the MIC [6, 15] was 4 µM (≈ 1.5 µg/mL). The MIC [6, 16] was 4 µM (≈ 1.5 µg/mL), the melting point was 152.4 to 155 °C and the IC50 at 24 h [7] was 551 µM. For the same compound, the IC50 (HepG2 cells) was > 500 µM.
With “5-Isopropyl-2-methylphenyl (E)-2-(2-isonicotinoylhydrazineylidene)propanoate [3k]” the MIC ([4]; 14 d incubation, esters, Table 1, read-out: MIC Mtb. 331/88 14 d) was 0.25 µM, the MIC ([4]; 21 d incubation, esters, Table 1, read-out: MIC Mtb. 331/88 21 d) was 0.25 µM and the MIC ([5]; 14 d incubation, Table 1, read-out: MIC M. avium 330/88 14 d) was 500 µM. The MIC ([5]; 21 d incubation, Table 1, read-out: MIC M. avium 330/88 21 d) was 1000 µM, the MIC ([6]; 7 d incubation, Table 1, read-out: MIC M. kansasii 6509/96 7 d) was 8 µM and the MIC ([6]; 14 d incubation, Table 1, read-out: MIC M. kansasii 6509/96 14 d) was 16 µM. The MIC ([6]; 21 d incubation, Table 1, read-out: MIC M. kansasii 6509/96 21 d) was 16 µM, the “fold lower activity than isomer 3l” value ([6]; M. kansasii 6509/96) was 64 × and the IC50 (HepG2 cells) was > 500 µM.
Compound `C/C(=N\NC(=O)c1ccncc1)C(=O)Oc1cccc2cccnc12` [3m, Quinolin-8-yl (E)-2-(2-isonicotinoylhydrazineylidene)propanoate] has an MIC [4, 10] of 0.25 µM (≈ 0.0836 µg/mL), an MIC [4, 11] of 0.5 µM (≈ 0.167 µg/mL) and an MIC [4, 17] of 0.25 µM (≈ 0.0836 µg/mL). It also gave an MIC [5, 12] of 32 µM (≈ 10.7 µg/mL), an MIC [5, 18] of 32 to 64 µM (≈ 10.7 to 21.4 µg/mL) and an MIC [5, 13] of 64 µM (≈ 21.4 µg/mL). The MIC [6, 14] was 2 µM (≈ 0.669 µg/mL), the MIC [6, 15] was 4 µM (≈ 1.34 µg/mL) and the MIC [6, 16] was 4 µM (≈ 1.34 µg/mL). The “MIC H37Ra pMV261/pVV16” value (Mtb. H37Ra pMV261/pVV16) was 0.25, the MIC (Mtb. H37Ra pMV261/pVV16) was 0.25 µM (≈ 0.0836 µg/mL) and the MIC H37Ra pMV261-inhA (Mtb. H37Ra pMV261-inhA) was 5 µM. It also gave an MIC (Mtb. H37Ra pMV261-inhA) of 5 µM (≈ 1.67 µg/mL), an MIC [8] of 0.125 µM (≈ 0.0418 µg/mL) and a melting point of 159.3 to 160.4 °C. The IC50 at 24 h [7] was 247 µM.
Work on `C/C(=N\NC(=O)c1ccncc1)C(=O)Oc1ccc2ccccc2c1` [3j, Naphthalen-2-yl (E)-2-(2-isonicotinoylhydrazineylidene)propanoate] yielded an MIC [4, 10] of 0.25 µM (≈ 0.0833 µg/mL), an MIC [4, 11] of 0.25 µM (≈ 0.0833 µg/mL) and an MIC [5, 12] of 125 µM (≈ 41.7 µg/mL). The MIC [5, 13] was 250 µM (≈ 83.3 µg/mL), the MIC [6, 14] was 0.25 µM (≈ 0.0833 µg/mL) and the MIC [6, 15] was 0.25 µM (≈ 0.0833 µg/mL). The MIC [6, 16] was 0.5 µM (≈ 0.167 µg/mL), the MIC [6, 19] was ≤ 0.5 µM and the melting point was 116 to 117.2 °C. The IC50 at 24 h [7] was 682 µM and the IC50 (HepG2 cells) was > 500 µM.
`C/C(=N\NC(=O)c1ccncc1)C(=O)Oc1cccc2ccccc12` [3i, Naphthalen-1-yl (E)-2-(2-isonicotinoylhydrazineylidene)propanoate] gave an MIC [4, 10] of 0.25 µM (≈ 0.0833 µg/mL), an MIC [4, 11] of 0.25 µM (≈ 0.0833 µg/mL) and an MIC [5, 12] of 125 µM (≈ 41.7 µg/mL). The MIC [5, 13] was 250 µM (≈ 83.3 µg/mL), the MIC [6, 14] was 0.25 µM (≈ 0.0833 µg/mL) and the MIC [6, 15] was 0.25 µM (≈ 0.0833 µg/mL). For the same compound, the MIC [6, 16] was 0.25 µM (≈ 0.0833 µg/mL), the MIC [6, 19] was ≤ 0.5 µM and the melting point was 181.1 to 182.5 °C. The IC50 at 24 h [7] was 999 µM and the IC50 (HepG2 cells) was > 500 µM.
With `C/C(=N\NC(=O)c1ccncc1)C(=O)Oc1cc(Cl)ccc1Oc1ccc(Cl)cc1Cl` [3o, 5-Chloro-2-(2,4-dichlorophenoxy)phenyl (E)-2-(2-isonicotinoylhydrazineylidene)propanoate] the MIC [4, 10] was ≤ 0.125 µM, the MIC [4, 11] was ≤ 0.125 µM and the MIC [4, 17] was 0.125 µM (≈ 0.0598 µg/mL). It also gave an MIC [5, 12] of 64 µM (≈ 30.6 µg/mL), an MIC [5, 18] of 32 to 64 µM (≈ 15.3 to 30.6 µg/mL) and an MIC [5, 13] of 64 µM (≈ 30.6 µg/mL). The MIC [6, 14] was 4 µM (≈ 1.91 µg/mL), the MIC [6, 15] was 4 µM (≈ 1.91 µg/mL) and the MIC [6, 16] was 8 µM (≈ 3.83 µg/mL). For the same compound, the “MIC H37Ra pMV261/pVV16” value (Mtb. H37Ra pMV261/pVV16) was 0.325, the MIC (Mtb. H37Ra pMV261/pVV16) was 0.325 µM (≈ 0.156 µg/mL) and the MIC H37Ra pMV261-inhA (Mtb. H37Ra pMV261-inhA) was 6 µM. The MIC (Mtb. H37Ra pMV261-inhA) was 6.25 µM (≈ 2.99 µg/mL), the MIC [8] was 0.125 µM (≈ 0.0598 µg/mL) and the “solubility in the concentration range of 1–1000 μM” value [9] was “without any solubility problem”. It also gave a melting point of 153 to 155 °C and an IC50 at 24 h [7] of 211 µM.
`C/C(=N\NC(=O)c1ccncc1)C(=O)Oc1cc(C(C)C)ccc1C` [3l, 2-Isopropyl-5-methyphenyl (E)-2-(2-isonicotinoylhydrazineylidene)propanoate] showed an MIC [4, 10] of 0.25 µM (≈ 0.0848 µg/mL), an MIC [4, 11] of 0.25 µM (≈ 0.0848 µg/mL) and an MIC [4, 17] of 0.25 µM (≈ 0.0848 µg/mL). For the same compound, the MIC [5, 12] was 125 µM (≈ 42.4 µg/mL), the MIC [5, 13] was 250 µM (≈ 84.8 µg/mL) and the MIC [6, 14] was 0.25 µM (≈ 0.0848 µg/mL). The MIC [6, 15] was 0.25 µM (≈ 0.0848 µg/mL), the MIC [6, 16] was 0.25 µM (≈ 0.0848 µg/mL) and the MIC [6, 19] was ≤ 0.5 µM. For the same compound, the “MIC H37Ra pMV261/pVV16” value (Mtb. H37Ra pMV261/pVV16) was 0.25, the MIC (Mtb. H37Ra pMV261/pVV16) was 0.25 µM (≈ 0.0848 µg/mL) and the MIC H37Ra pMV261-inhA (Mtb. H37Ra pMV261-inhA) was 5 µM. For the same compound, the MIC (Mtb. H37Ra pMV261-inhA) was 5 µM (≈ 1.7 µg/mL), the MIC [8] was 0.05 to 0.125 µM (≈ 0.017 to 0.0424 µg/mL) and the IC50 at 24 h [7] was > 1000 µM.
